Where “and” joins values, the source holds several entries; their conditions need not be identical. Equal values may be shown once. Inconclusive results and toxic doses are left out. How the source made its calls: active means survival T/C of 150% or more; inactive means T/C below 125% in these data.
Test system: CD2F1 mice, L1210 leukemia ip, survival T/C
Experiment: NCI In Vivo Anticancer Drug Screen. Data for tumor model L1210 Leukemia (intraperitoneal) in CD2F1 (CDF1) mice
Settings: higher = longer survival
Summary of the method: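 In this screen, transplantable tumors were grown in mice given either the compound or its vehicle. Results were expressed as the treated measurement relative to the control measurement.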

Measured: T/C

O=C(O)CCCc1ccc(N(CCCl)CCCl)cc1
inactive: endpoint: mean survival time, dose: 0.5 mg/kg/injection, schedule: Q01DX009 (ip), vehicle: Klucel (hydroxypropylcellulose) (HPC) 103 % of control and 108 % of control | endpoint: mean survival time, dose: 1.0 mg/kg/injection, schedule: Q01DX009 (ip), vehicle: Klucel (hydroxypropylcellulose) (HPC) 94 % of control and 100 % of control and 106 % of control | endpoint: mean survival time, dose: 1.0 mg/kg/injection, schedule: Q03HX024 (ip), vehicle: other 102 % of control | endpoint: mean survival time, dose: 1.56 mg/kg/injection, schedule: Q01DX009 (ip), vehicle: saline 101 % of control and 103 % of control | endpoint: mean survival time, dose: 2.0 mg/kg/injection, schedule: Q01DX009 (ip), vehicle: Klucel (hydroxypropylcellulose) (HPC) 97 % of control and 100 % of control and 103 % of control | endpoint: mean survival time, dose: 2.0 mg/kg/injection, schedule: Q01DX009 (ip), vehicle: saline with Tween-80 106 % of control | endpoint: mean survival time, dose: 2.0 mg/kg/injection, schedule: Q01DX009 (oral), vehicle: other 102 % of control | endpoint: mean survival time, dose: 2.0 mg/kg/injection, schedule: Q03HX008 (ip), vehicle: other 101 % of control | endpoint: mean survival time, dose: 2.0 mg/kg/injection, schedule: Q03HX016 (ip), vehicle: other 103 % of control | endpoint: mean survival time, dose: 2.0 mg/kg/injection, schedule: Q03HX024 (ip), vehicle: other 105 % of control | endpoint: mean survival time, dose: 3.13 mg/kg/injection, schedule: Q01DX009 (ip), vehicle: saline 119 % of control and 110 % of control | endpoint: mean survival time, dose: 3.75 mg/kg/injection, schedule: Q01DX009 (ip), vehicle: Klucel (hydroxypropylcellulose) (HPC) 102 % of control | endpoint: mean survival time, dose: 4.0 mg/kg/injection, schedule: Q01DX001 (ip), vehicle: saline with Tween-80 91 % of control | endpoint: mean survival time, dose: 4.0 mg/kg/injection, schedule: Q01DX001 (oral), vehicle: other 95 % of control | endpoint: mean survival time, dose: 4.0 mg/kg/injection, schedule: Q01DX009 (ip), vehicle: Klucel (hydroxypropylcellulose) (HPC) 116 % of control and 101 % of control and 111 % of control | endpoint: mean survival time, dose: 4.0 mg/kg/injection, schedule: Q01DX009 (ip), vehicle: other 114 % of control | endpoint: mean survival time, dose: 4.0 mg/kg/injection, schedule: Q01DX009 (ip), vehicle: saline with Tween-80 117 % of control and 103 % of control | endpoint: mean survival time, dose: 4.0 mg/kg/injection, schedule: Q01DX009 (oral), vehicle: other 96 % of control | endpoint: mean survival time, dose: 4.0 mg/kg/injection, schedule: Q01DX009 (sc), vehicle: other 102 % of control | endpoint: mean survival time, dose: 4.0 mg/kg/injection, schedule: Q03HX008 (ip), vehicle: other 102 % of control | endpoint: mean survival time, dose: 4.0 mg/kg/injection, schedule: Q03HX016 (ip), vehicle: other 110 % of control | endpoint: mean survival time, dose: 4.0 mg/kg/injection, schedule: Q03HX024 (ip), vehicle: other 111 % of control | endpoint: mean survival time, dose: 4.0 mg/kg/injection, schedule: Q04DX003 (ip), vehicle: saline with Tween-80 102 % of control | endpoint: mean survival time, dose: 4.0 mg/kg/injection, schedule: Q04DX003 (oral), vehicle: other 107 % of control | endpoint: mean survival time, dose: 6.25 mg/kg/injection, schedule: Q01DX009 (ip), vehicle: saline 106 % of control and 110 % of control | endpoint: mean survival time, dose: 7.5 mg/kg/injection, schedule: Q01DX007 (ip), vehicle: saline 108 % of control | endpoint: mean survival time, dose: 7.5 mg/kg/injection, schedule: Q01DX009 (ip), vehicle: saline 114 % of control | endpoint: mean survival time, dose: 7.5 mg/kg/injection, schedule: Q03DX003 (ip), vehicle: saline 104 % of control | endpoint: mean survival time, dose: 7.5 mg/kg/injection, schedule: Q04DX003 (ip), vehicle: saline 102 % of control | endpoint: mean survival time, dose: 8.0 mg/kg/injection, schedule: Q01DX001 (ip), vehicle: saline with Tween-80 96 % of control | endpoint: mean survival time, dose: 8.0 mg/kg/injection, schedule: Q01DX001 (oral), vehicle: other 96 % of control | endpoint: mean survival time, dose: 8.0 mg/kg/injection, schedule: Q01DX009 (ip), vehicle: Klucel (hydroxypropylcellulose) (HPC) 113 % of control and 117 % of control and 105 % of control | endpoint: mean survival time, dose: 8.0 mg/kg/injection, schedule: Q01DX009 (ip), vehicle: other 120 % of control | endpoint: mean survival time, dose: 8.0 mg/kg/injection, schedule: Q01DX009 (ip), vehicle: saline with Tween-80 117 % of control and 101 % of control | endpoint: mean survival time, dose: 8.0 mg/kg/injection, schedule: Q01DX009 (oral), vehicle: other 106 % of control | endpoint: mean survival time, dose: 8.0 mg/kg/injection, schedule: Q01DX009 (sc), vehicle: other 111 % of control | endpoint: mean survival time, dose: 8.0 mg/kg/injection, schedule: Q03HX008 (ip), vehicle: other 119 % of control | endpoint: mean survival time, dose: 8.0 mg/kg/injection, schedule: Q03HX016 (ip), vehicle: other 118 % of control | endpoint: mean survival time, dose: 8.0 mg/kg/injection, schedule: Q04DX003 (ip), vehicle: other 118 % of control | endpoint: mean survival time, dose: 8.0 mg/kg/injection, schedule: Q04DX003 (ip), vehicle: saline with Tween-80 109 % of control | endpoint: mean survival time, dose: 8.0 mg/kg/injection, schedule: Q04DX003 (oral), vehicle: other 96 % of control | endpoint: mean survival time, dose: 10.0 mg/kg/injection, schedule: Q01DX009 (ip), vehicle: saline with Tween-80 118 % of control | endpoint: mean survival time, dose: 12.5 mg/kg/injection, schedule: Q01DX009 (ip), vehicle: saline 119 % of control | endpoint: mean survival time, dose: 15.0 mg/kg/injection, schedule: Q01DX007 (ip), vehicle: saline 122 % of control | endpoint: mean survival time, dose: 15.0 mg/kg/injection, schedule: Q01DX009 (ip), vehicle: Klucel (hydroxypropylcellulose) (HPC) 108 % of control | endpoint: mean survival time, dose: 15.0 mg/kg/injection, schedule: Q01DX009 (ip), vehicle: saline with Tween-80 120 % of control | endpoint: mean survival time, dose: 15.0 mg/kg/injection, schedule: Q01DX009 (ip), vehicle: saline 120 % of control | endpoint: mean survival time, dose: 15.0 mg/kg/injection, schedule: Q03DX003 (ip), vehicle: saline 117 % of control | endpoint: mean survival time, dose: 15.0 mg/kg/injection, schedule: Q04DX003 (ip), vehicle: saline 111 % of control | endpoint: mean survival time, dose: 16.0 mg/kg/injection, schedule: Q01DX001 (ip), vehicle: other 102 % of control | endpoint: mean survival time, dose: 16.0 mg/kg/injection, schedule: Q01DX001 (ip), vehicle: saline with Tween-80 107 % of control | endpoint: mean survival time, dose: 16.0 mg/kg/injection, schedule: Q01DX001 (oral), vehicle: other 93 % of control | endpoint: mean survival time, dose: 16.0 mg/kg/injection, schedule: Q01DX001 (sc), vehicle: other 104 % of control | endpoint: mean survival time, dose: 16.0 mg/kg/injection, schedule: Q01DX009 (ip), vehicle: Klucel (hydroxypropylcellulose) (HPC) 114 % of control and 97 % of control | endpoint: mean survival time, dose: 16.0 mg/kg/injection, schedule: Q01DX009 (ip), vehicle: saline with Tween-80 118 % of control and 97 % of control | endpoint: mean survival time, dose: 16.0 mg/kg/injection, schedule: Q01DX009 (oral), vehicle: other 120 % of control | endpoint: mean survival time, dose: 16.0 mg/kg/injection, schedule: Q01DX009 (sc), vehicle: other 120 % of control | endpoint: mean survival time, dose: 16.0 mg/kg/injection, schedule: Q04DX003 (ip), vehicle: other 115 % of control | endpoint: mean survival time, dose: 16.0 mg/kg/injection, schedule: Q04DX003 (ip), vehicle: saline with Tween-80 120 % of control | endpoint: mean survival time, dose: 16.0 mg/kg/injection, schedule: Q04DX003 (oral), vehicle: other 103 % of control | endpoint: mean survival time, dose: 16.0 mg/kg/injection, schedule: Q08DX002 (ip), vehicle: other 101 % of control | endpoint: mean survival time, dose: 30.0 mg/kg/injection, schedule: Q01DX007 (ip), vehicle: saline with Tween-80 90 % of control | endpoint: mean survival time, dose: 30.0 mg/kg/injection, schedule: Q01DX009 (ip), vehicle: Klucel (hydroxypropylcellulose) (HPC) 110 % of control | endpoint: mean survival time, dose: 30.0 mg/kg/injection, schedule: Q01DX009 (ip), vehicle: saline 124 % of control | endpoint: mean survival time, dose: 30.0 mg/kg/injection, schedule: Q04DX003 (ip), vehicle: saline 114 % of control | endpoint: mean survival time, dose: 32.0 mg/kg/injection, schedule: Q01DX001 (ip), vehicle: other 108 % of control | endpoint: mean survival time, dose: 32.0 mg/kg/injection, schedule: Q01DX001 (ip), vehicle: saline with Tween-80 117 % of control and 109 % of control | endpoint: mean survival time, dose: 32.0 mg/kg/injection, schedule: Q01DX001 (oral), vehicle: other 96 % of control | endpoint: mean survival time, dose: 32.0 mg/kg/injection, schedule: Q01DX001 (sc), vehicle: other 108 % of control | endpoint: mean survival time, dose: 32.0 mg/kg/injection, schedule: Q01DX009 (oral), vehicle: other 102 % of control | endpoint: mean survival time, dose: 32.0 mg/kg/injection, schedule: Q04DX003 (ip), vehicle: other 120 % of control | endpoint: mean survival time, dose: 32.0 mg/kg/injection, schedule: Q04DX003 (oral), vehicle: other 103 % of control | endpoint: mean survival time, dose: 32.0 mg/kg/injection, schedule: Q08DX002 (ip), vehicle: other 108 % of control | endpoint: mean survival time, dose: 64.0 mg/kg/injection, schedule: Q01DX001 (ip), vehicle: other 118 % of control | endpoint: mean survival time, dose: 64.0 mg/kg/injection, schedule: Q01DX001 (oral), vehicle: other 102 % of control | endpoint: mean survival time, dose: 64.0 mg/kg/injection, schedule: Q01DX001 (sc), vehicle: other 114 % of control | endpoint: mean survival time, dose: 64.0 mg/kg/injection, schedule: Q04DX003 (oral), vehicle: other 93 % of control | endpoint: mean survival time, dose: 64.0 mg/kg/injection, schedule: Q08DX002 (ip), vehicle: other 112 % of control | endpoint: median survival time, dose: 3.13 mg/kg/injection, schedule: Q01DX009 (ip), vehicle: saline 114 % of control and 105 % of control | endpoint: median survival time, dose: 6.25 mg/kg/injection, schedule: Q01DX009 (ip), vehicle: saline 114 % of control and 105 % of control | endpoint: median survival time, dose: 12.5 mg/kg/injection, schedule: Q01DX009 (ip), vehicle: saline 117 % of control

— PubChem BioAssay AID256 (DTP/NCI, 2004)
